Experimental data as given in patent US10954549B2, “Detection and classification of an anticoagulant using a clotting assay” (Haemonetics Corporation, priority 2014, dated 2021).

Legend:
citrated whole blood [1] = assay: TEG kaolin with ecarin test of spiked blood; type: biochemical, human; details: for R value with ecarin versus reference range: Example 2, three dosage levels, kaolin reference range about 5 to about 10 minutes; for R time in the presence versus absence of ecarin: FIGS. 8A-8C; for MA values with ecarin relative to samples run without ecarin: kaolin test; for R, K and TMRTG values on addition of ecarin to the kaolin test / α and MRTG values on addition of ecarin to the kaolin test: treated and control groups
Text: (§1) The TEG clotting assay was used to determine if low, normal, and high doses of dabigatran, rivaroxaban, and apixaban could be detected in blood spiked with these compounds. Three oral anticoagulants (OAC), namely dabigatran, rivaroxaban, and apixaban, were spiked into blood obtained from 14 healthy volunteer human donors. For each OAC tested, citrated blood from three donors was spiked with three different concentrations of the active drug (i.e., the compound). The spiked blood samples and control samples spiked with diluent were tested with the TEG® 5000 Thrombelastograph® Hemostasis Analyzer (Haemonetics Corporation, Braintree, Mass., USA) using the Kaolin and RapidTEG® reagents (Haemonetics). Each sample was run in triplicate. All samples were tested with and without ecarin (purchased from Enzyme Research Laboratories, South Bend, IN). This study was IRB approved and all donors were over 18 and signed informed consent forms.
For the kaolin test, 1 mL of citrated blood sample was mixed with kaolin and 340 microliters (μL) of this blood was added to a TEG cup containing 20 μL of 0.2M CaCl2 for recalcification. The kaolin with ecarin test was performed in a similar fashion, using 20 μL of an ecarin/CaCl2 solution (0.16 M CaCl2; 19 EU/mL ecarin).
Ecarin is derived from the venom of the saw-scaled viper, Echis carinatus. Ecarin activates prothrombin (the precursor of thrombin—see FIG. 5). This activation of prothrombin by ecarin produces meizothrombin, a prothrombin-thrombin intermediate which has a low level of procoagulant enzymatic activity.
Healthy human volunteers (who are not being administered any anticoagulant), donated blood. Following donation, the blood collected from the donors (which was added to citrate to prevent clotting) was divided into portions, and portions of the blood were spiked with either nothing, dabigatran, or rivaroxaban. The portions were then assayed using thromboelastography, including assays performed in the presence of ecarin.

citrated whole blood [2] = assay: rTEG with ecarin test of spiked blood; type: biochemical, human
Text: as §1
340 μL of the citrated blood sample was added to the cup with these two reagents, and the contents of the cup were mixed 3 times by drawing the contents of the cup up into the pipette and redispensing it into the cup. The test was started immediately after mixing and allowed to run until the MA parameter had defined. The rTEG with ecarin test was performed as the rTEG test above, using 20 μL of an ecarin/CaCl2 solution (0.16M CaCl2; 19EU/mL ecarin).

[3] = test system: blood from healthy volunteers; assay: Thromboelastography R time of spiked blood in the presence of the ecarin reagent; type: biochemical, human
Procedure: Blood from healthy volunteers known not to be taking any oral anticoagulant and without any other significant health issues are analyzed using the FXa or the Ecarin reagent in a TEG® hemostasis analyzer.
The ecarin reagent is used to classify the type of anticoagulant. The R-time from the Ecarin assay is used to differentiate between the two available classes (Direct thrombin inhibitors and anti-Xa inhibitors). This ecarin reagent may be used in combination with the results from the FXa reagent to make a decision. A reference range will be generated from a sample healthy volunteer population (not on any drug) for this reagent.
The R-time generated from multiple donors was used to construct a reference range. Blood was spiked with either direct thrombin inhibitors or anti-Xa(s) at different concentrations and analyzed using the FXa reagent or the Ecarin reagent. The drug concentrations chosen represent the published therapeutic ranges for these two classes of drugs. This assay was repeated in multiple donors to account for possible donor variations.
The R time (in minutes) was compared to the R time obtained from donor blood with no oral anticoagulant (who is known not to be administered with an anticoagulant) treated with the ecarin reagent and measured using thromboelastography.
The R time (in minutes) was compared to the R time obtained from donor blood with no oral anticoagulant (i.e., taken from a patient who is known not to be administered with an anticoagulant) treated with the ecarin reagent and measured using thromboelastography.

porcine plasma = assay: TEG 6S DTI channel R-time, porcine experimental trauma model; type: in vivo; details: pre and post trauma; baseline 3.4±0.6 min
Procedure: The TEG®6S system (Haemonetics Corp., Braintree, Mass.) is based on viscoelasticity measurements using resonance frequency and disposable multi-channel microfluidic cartridges. Blood and plasma from healthy volunteers were spiked with dabigatran in the therapeutic range (in increasing concentrations) and tested with an OAC cartridge with an ecarin based, direct thrombin inhibitor (DTI) channel. This channel was also evaluated with porcine plasma from an experimental trauma model (n=6) where dabigatran levels were measured with dilute TT (Hemoclot®). TEG 6s R-time (reaction time) was correlated to the drug levels.

[4] = cited from earlier work
[5] = test system: blood from a single human volunteer; assay: Detection time (R time with Factor Xa) in volunteer blood before and after oral anticoagulant; type: in vivo; details: 2 hours 30 minutes after 20 mg oral
Procedure: (§2) Blood from a single human volunteer was analyzed using thromboelastography with Factor Xa and ecarin before and after the volunteer was orally administered an anticoagulant.
(§3) For these studies, the normal ranges for the particular reagent (i.e., Factor Xa or ecarin) were determined using multiple donors known not to be taking any anticoagulant.
(§4) The human volunteer was known not to be taking (i.e., was not being administered) an anticoagulant. In this example, blood was taken from the volunteer before the volunteer was administered any anticoagulant. This is the “before” blood component sample. The volunteer was orally administered 20 mg rivaroxaban, an anti-Factor Xa anticoagulant. Two hours and thirty minutes after oral administration of the rivaroxaban, blood was drawn again from the volunteer. This is the “after” blood component sample.
(§5) The “before” and “after” samples were analyzed using thromboelastography in the presence of Factor Xa or in the presence of ecarin. When the R time is determined in the presence of Factor Xa, that time is called the detection time. When the R time is determined in the presence of ecarin, that time is called the classification time.

[6] = test system: blood from a single human volunteer; assay: Classification time (R time with ecarin) in volunteer blood before and after oral anticoagulant; type: in vivo; details: 2 hours 30 minutes after 20 mg oral
Procedure: as §2, §3, §4, §5

## dabigatran
Citrated whole blood [1]; 500, 200, 50 ng/mL
  R, kaolin test with ecarin: only a dose related decrease of the R
Citrated whole blood [1]
  R value with ecarin versus reference range: shortened and approaches the normal reference range
  R time in the presence versus absence of ecarin: concentration dependent decrease in R time
  MA values with ecarin relative to samples run without ecarin: did not change
  R, K and TMRTG values on addition of ecarin to the kaolin test: significant decrease
  α and MRTG values on addition of ecarin to the kaolin test: significant increase
Citrated whole blood [2]
  TEG-ACT times on addition of ecarin to the RapidTEG test: significantly decreases
  TMRTG times on addition of ecarin to the RapidTEG test: significantly decreases
Citrated whole blood [2]; 200 ng/mL, still within normal range
  MA value on addition of ecarin to the RapidTEG test: significantly decreased
Citrated whole blood [2]; lowest concentrations (200 ng/mL, 50 ng/mL)
  RapidTEG α angle when ecarin was added: decrease of the angle value
Citrated whole blood [2]; middle concentration (200 ng/mL)
  RapidTEG K values when ecarin was added: increased
[3]; 50 ng/ml, donor 126, ecarin reagent
  R time versus untreated R time of unspiked donor blood: two times longer
[3]; 50 ng/ml, donors 117, 127, and 146, ecarin
  R time relative to the reference range of 3.1 minutes: at least 1.25 times
[3]; 150 ng/ml, all four donors, ecarin
  R time relative to the collective reference range of 3.1 minutes: at least 1.25 times
Porcine plasma
  R-time following administration: ≥ 21 ± 5.9 min
[4]; 150 mg oral dose
  maximum plasma concentration: 110 ng/mL
[4]; lengthened in patients with renal dysfunction
  half-life: 12 to 17 h

## O=C(NC[C@H]1CN(c2ccc(N3CCOCC3=O)cc2)C(=O)O1)c1ccc(Cl)s1 [rivaroxaban, Rivaroxaban]
Citrated whole blood [1]
  R value with ecarin versus reference range: dramatically shortened and all three dosage levels fall outside of the control reference range
  R time in the presence versus absence of ecarin: equivalent and significant shortening of R time
  MA values with ecarin relative to samples run without ecarin: did not change
  R, K and TMRTG values on addition of ecarin to the kaolin test: significant decrease
  α and MRTG values on addition of ecarin to the kaolin test: significant increase
Citrated whole blood [2]
  TEG-ACT times on addition of ecarin to the RapidTEG test: significantly decreases
  TMRTG times on addition of ecarin to the RapidTEG test: significantly decreases
Citrated whole blood [2]; any of the studied concentrations
  RapidTEG α angle when ecarin was added: did not change
Citrated whole blood [2]; middle concentration (89 ng/mL)
  RapidTEG K values when ecarin was added: significantly decreased
[3]; 50-350 ng/ml, ecarin
  R time versus reference range of approximately 1 to 4.1 minutes: within the reference range
[5]
  "after" detection time (R time, FXa reagent): approximately 4.4 minutes
  "after" detection time relative to the reference range R time of 1.5 minutes: 2.93 times
[6]
  R of "after" blood versus Ecarin reference range (approximately 4.1 minutes upper boundary): within the Ecarin reference range
[4]; in vivo
  half-lives compared: shorter half-lives than dabigatran
[4]; oral dose of 10 mg
  Cmax: 141 ng/mL
